Measurements reported in PubChem BioAssay AID1996.
≈ marks a conversion by molar mass, not a printed value.

details: buffer; pH 7.4; 200.0 µM

Question: With CC1CCCC(NC(=O)COC(=O)[C@@H](NC(=O)c2ccc(F)cc2)C(C)C)C1C (stereo not given in full) as the compound, how does the solubility kinetic read?
Answer: 8.7 µg/mL (≈ 21.4 µM)

Question: Which solubility kinetic does the source give for O=C(NC(=S)NC(CO)Cc1ccccc1)c1ccc(F)cc1 (stereo not given) here?
Answer: 4.9 µg/mL (≈ 14.7 µM)

Question: With O=C(COC(=O)c1cc(=O)[nH]c2ccccc12)NC1CCCCC1 as the compound, how does the solubility kinetic read?
Answer: 4.7 µg/mL (≈ 14.3 µM)

Question: Which solubility kinetic does the source give for COc1cc(CCC(=O)OCC(=O)N2CC(=O)Nc3ccccc32)cc(OC)c1OC here?
Answer: > 64.3 µg/mL

Question: Which solubility kinetic does the source give for Cc1cccc(NC(=O)c2ccccc2C(=O)Nc2cccc(C)c2)c1 here?
Answer: 3 µg/mL (≈ 8.71 µM)

Question: With COC(=O)c1[nH]c2ccccc2c1NC(=O)c1c(F)cccc1F as the compound, how does the solubility kinetic read?
Answer: 1.1 µg/mL (≈ 3.33 µM)

Question: With Cc1cc(OCC(O)CN2CCCC2)cc(C)c1Cl.Cl (stereo not given) as the compound, how does the solubility kinetic read?
Answer: 42.3 µg/mL

Question: With Cc1ccc(C(=O)NCC(=O)N2CCCN(C)CC2)cc1C as the compound, how does the solubility kinetic read?
Answer: > 45.5 µg/mL

Question: With Cc1nc2ccc(NS(=O)(=O)c3ccc(F)c(C)c3)cc2[nH]1 as the compound, how does the solubility kinetic read?
Answer: > 47.9 µg/mL

Question: Which solubility kinetic does the source give for NS(=O)(=O)c1ccc(NC(=O)COc2ccc(Cl)cc2)cc1 here?
Answer: 2.5 µg/mL (≈ 7.34 µM)

Question: For Cc1cc(C)cc(N2C(=O)CCN(Cc3ccccc3)C2=O)c1, which solubility kinetic is on record?
Answer: 38 µg/mL (≈ 123 µM)

Question: Which solubility kinetic does the source give for CN1CCN(S(=O)(=O)c2csc(C(N)=O)c2)CC1 here?
Answer: > 43.4 µg/mL

Question: With NS(=O)(=O)c1ccc(CCNC(=O)COC(=O)CCc2c[nH]c3ccccc23)cc1 as the compound, how does the solubility kinetic read?
Answer: > 64.4 µg/mL

Question: With CC(C)(C)CC(=O)Nc1cc2c3c(c1)CCC(=O)N3CCC2 as the compound, how does the solubility kinetic read?
Answer: 43.2 µg/mL (≈ 144 µM)

Question: With O=C(NC(c1ccccc1)c1ccccc1)c1ccc(CO)cc1 as the compound, how does the solubility kinetic read?
Answer: 44.2 µg/mL (≈ 139 µM)

Question: With CC(NC(=O)c1ccccc1Cl)c1ccc(-n2ccnc2)cc1 (stereo not given) as the compound, how does the solubility kinetic read?
Answer: > 48.9 µg/mL

Question: With O=C(Cc1c(F)cccc1Cl)Nc1ncc([N+](=O)[O-])s1 as the compound, how does the solubility kinetic read?
Answer: 16.7 µg/mL (≈ 52.9 µM)

Question: With O=C(CO/N=C/c1ccc(OC(F)F)cc1)NC1CCCC1 as the compound, how does the solubility kinetic read?
Answer: > 46.8 µg/mL

Question: For OCc1nc2ccc(Cl)cc2[nH]1, which solubility kinetic is on record?
Answer: > 27.4 µg/mL

Question: With CC1CCCN(C(=O)CCNC(=O)c2ccccc2Cl)C1 (stereo not given) as the compound, how does the solubility kinetic read?
Answer: > 46.3 µg/mL

Question: For CCOC(=O)c1ccccc1NC(=O)C1CCCO1 (stereo not given), which solubility kinetic is on record?
Answer: > 39.5 µg/mL

Question: With C=CCN1CCN(C(=O)c2cc3c(s2)CCC(CC)C3)CC1 (stereo not given) as the compound, how does the solubility kinetic read?
Answer: 46.3 µg/mL (≈ 145 µM)

Question: For COC(=O)c1sccc1NC(=O)CSCCc1ccncc1, which solubility kinetic is on record?
Answer: 49.6 µg/mL (≈ 147 µM)

Question: Which solubility kinetic does the source give for O=S(=O)(NCc1ccccc1)c1ccc(Br)s1 here?
Answer: 21.3 µg/mL (≈ 64.1 µM)

Question: For Cc1cccc(C(=O)OC(C)CN2CCOCC2)c1.Cl (stereo not given), which solubility kinetic is on record?
Answer: 38.9 µg/mL

Question: With CN(C)/C=C(\c1cnc(Cl)s1)S(=O)(=O)c1ccccc1 as the compound, how does the solubility kinetic read?
Answer: 43.8 µg/mL (≈ 133 µM)

Question: With Cl.N#C/C=C/N1CCN(Cc2ccc3c(c2)OCO3)CC1 as the compound, how does the solubility kinetic read?
Answer: > 46.2 µg/mL

Question: With O=C(O)Cn1cc(CN2CCOCC2)c2ccccc21 as the compound, how does the solubility kinetic read?
Answer: 30 µg/mL (≈ 109 µM)

Question: With CCCCn1c(NCc2ccncc2)nc2ccccc21 as the compound, how does the solubility kinetic read?
Answer: 39.4 µg/mL (≈ 141 µM)

Question: With CC(C)(C)c1ccc(/C=C/C(=O)NC2CCS(=O)(=O)C2)cc1 (stereo not given) as the compound, how does the solubility kinetic read?
Answer: > 48.2 µg/mL

Question: Which solubility kinetic does the source give for CC(C)(CN1CCCC1)NS(=O)(=O)c1ccc(Cl)cc1 here?
Answer: > 47.5 µg/mL

Question: With O=C(Nc1ccncc1)c1sc2ccccc2c1Cl as the compound, how does the solubility kinetic read?
Answer: 0.8 µg/mL (≈ 2.77 µM)

Question: For CCN1C(=O)CC(NCc2ccc(S(N)(=O)=O)cc2)C1=O (stereo not given), which solubility kinetic is on record?
Answer: > 46.7 µg/mL

Question: For O=C(CCc1ccccc1)NC1CCS(=O)(=O)C1 (stereo not given), which solubility kinetic is on record?
Answer: > 40.1 µg/mL

Question: With Cn1c(SCc2ccccc2Br)nc2ccccc2c1=O as the compound, how does the solubility kinetic read?
Answer: 0.4 µg/mL (≈ 1.11 µM)

Question: Which solubility kinetic does the source give for CCOc1cc(C(N)=O)cc(Cl)c1OCC here?
Answer: 34.6 µg/mL (≈ 142 µM)

Question: For Cn1c(COc2ccccc2)nc2ccccc21, which solubility kinetic is on record?
Answer: 23.2 µg/mL (≈ 97.4 µM)

Question: With COC(=O)c1cc2ccccc2n1Cc1ccc(Cl)nc1 as the compound, how does the solubility kinetic read?
Answer: 1.5 µg/mL (≈ 4.99 µM)

Question: Which solubility kinetic does the source give for O=[N+]([O-])c1ccc(S(=O)(=O)NCCCc2ccccc2)cc1 here?
Answer: 28 µg/mL (≈ 87.4 µM)

Question: For COc1ccc(CN(C)C(=O)c2ccc(NS(=O)(=O)c3ccc4[nH]c(=O)[nH]c4c3)cc2)c(OC)c1OC, which solubility kinetic is on record?
Answer: > 79 µg/mL

Question: For O=C(NCc1c(O)ccc2ccccc12)c1ccccc1, which solubility kinetic is on record?
Answer: 1 µg/mL (≈ 3.61 µM)

Question: With O=c1[nH]cnc2ncc(-c3ccc(O)cc3)nc12 as the compound, how does the solubility kinetic read?
Answer: > 36 µg/mL

Question: With CCCCC1CN2CCc3c([nH]c4ccccc34)C2(C)C1.Cl (stereo not given) as the compound, how does the solubility kinetic read?
Answer: 27.7 µg/mL

Question: With Cc1ccc(NC(=O)CN(C)C(=O)COc2ccccc2-c2ccccc2)cc1 as the compound, how does the solubility kinetic read?
Answer: 11.1 µg/mL (≈ 28.6 µM)

Question: With O=C(O)C1CCCN1C(=O)C12CC3CC(CC(C3)C1)C2 (stereo not given) as the compound, how does the solubility kinetic read?
Answer: > 41.6 µg/mL

Question: Which solubility kinetic does the source give for CCC(Oc1ccccc1F)C(=O)NCCCn1ccnc1 (stereo not given) here?
Answer: > 45.8 µg/mL

Question: For CC(=O)OC1CCC2(/C=N/O)C(=CCC3C4CCC(=O)C4(C)CCC32)C1 (stereo not given), which solubility kinetic is on record?
Answer: > 53.9 µg/mL

Question: For CCOC(=O)N1CCN(C(=O)c2c(N)no[n+]2[O-])CC1, which solubility kinetic is on record?
Answer: > 42.8 µg/mL

Question: With Cc1ccc(C(=O)NCC(=O)N2CCN(c3ccccc3)CC2)cc1 as the compound, how does the solubility kinetic read?
Answer: 4.4 µg/mL (≈ 13 µM)

Question: Which solubility kinetic does the source give for Cl.O=C(O)c1ccc(Nc2ncnc3ccccc23)cc1 here?
Answer: > 45.3 µg/mL

Question: For COc1ccc(CNC(=O)COC(=O)c2ccc3ccccc3n2)cc1, which solubility kinetic is on record?
Answer: 16.3 µg/mL (≈ 46.5 µM)

Question: For COc1ccc(S(=O)(=O)N(C)CC(=O)N2CCCCCC2)cc1, which solubility kinetic is on record?
Answer: > 51.1 µg/mL

Question: With Clc1nccc(NCc2ccccc2)n1 as the compound, how does the solubility kinetic read?
Answer: > 33 µg/mL

Question: Which solubility kinetic does the source give for CC1CCCC(C)N1/N=C/c1ccc(C#N)cc1 (stereo not given) here?
Answer: > 36.2 µg/mL

Question: For CCOc1ccc(CN(C)C(=O)CNC(=O)c2ccccc2)cc1, which solubility kinetic is on record?
Answer: > 49 µg/mL

Question: With CN1CCN(CCn2c(=S)[nH]c3ccccc3c2=O)CC1 as the compound, how does the solubility kinetic read?
Answer: > 45.7 µg/mL

Question: With CCOC(=O)c1[nH]c(C=O)c(C(=O)OCC)c1C as the compound, how does the solubility kinetic read?
Answer: 20.7 µg/mL (≈ 81.7 µM)

Question: For CC(=O)/C(=C\N(C)C)Sc1ccc(Cl)cc1, which solubility kinetic is on record?
Answer: 17.6 µg/mL (≈ 68.8 µM)

Question: Which solubility kinetic does the source give for O=C(CSc1nc2ccccc2c2c1CCCC2)N1CCOCC1 here?
Answer: 9.9 µg/mL (≈ 28.9 µM)

Question: Which solubility kinetic does the source give for Nc1cc(Cl)ccc1C(=O)OCC(=O)NC1CCCCC1 here?
Answer: 0.5 µg/mL (≈ 1.61 µM)

Question: Which solubility kinetic does the source give for CC(NC(=O)CSc1nc2ccccc2n1C)c1ccccc1 (stereo not given) here?
Answer: > 48.8 µg/mL

Question: For COc1cccc(CN2CCN(C(=O)Cc3ccccc3OC)CC2)c1, which solubility kinetic is on record?
Answer: > 53.2 µg/mL

Question: With O=C(CSc1nc2ncccc2[nH]1)NC1CCCCC1 as the compound, how does the solubility kinetic read?
Answer: > 43.6 µg/mL

Question: For CCN1/C(=C\C(=S)Nc2ccccc2)Sc2ccccc21, which solubility kinetic is on record?
Answer: 20.7 µg/mL (≈ 66.2 µM)

Question: Which solubility kinetic does the source give for CC(=O)c1cccc(NC(=O)C2COc3ccccc3O2)c1 (stereo not given) here?
Answer: 44.1 µg/mL (≈ 148 µM)

Question: For COc1ccc2[nH]c3c(c2c1)CC(C)NC3=O (stereo not given), which solubility kinetic is on record?
Answer: 33.3 µg/mL (≈ 145 µM)

Question: For CC(C)N(C)CCOC(=O)C1COc2ccccc2O1.Cl (stereo not given), which solubility kinetic is on record?
Answer: > 47.4 µg/mL

Question: For NC(=O)COC(=O)c1ccc2noc(-c3ccccc3)c2c1, which solubility kinetic is on record?
Answer: 26.1 µg/mL (≈ 88.1 µM)

Question: For CC(OC(=O)c1cnccn1)C(=O)c1ccccc1 (stereo not given), which solubility kinetic is on record?
Answer: > 38.4 µg/mL

Question: For COc1cccc(NC(=O)CN2CCc3ccccc3C2)c1, which solubility kinetic is on record?
Answer: 42.7 µg/mL (≈ 144 µM)

Question: With CC(C)NC(=O)CSc1ncccc1-c1nc2ccccc2[nH]1 as the compound, how does the solubility kinetic read?
Answer: 46.9 µg/mL (≈ 144 µM)

Question: With O=C(Nc1ncc([N+](=O)[O-])s1)C1COc2ccccc2O1 (stereo not given) as the compound, how does the solubility kinetic read?
Answer: > 46.1 µg/mL

Question: With Cc1cc(NS(=O)(=O)c2ccc(NC(=O)CNS(=O)(=O)c3ccccc3)cc2)nc(C)n1 as the compound, how does the solubility kinetic read?
Answer: 67.3 µg/mL (≈ 142 µM)

Question: For CCOC(=O)CNC(=O)CN1CCC(c2nc3ccccc3[nH]2)CC1, which solubility kinetic is on record?
Answer: > 51.7 µg/mL

Question: For CNc1nc(N)c([N+](=O)[O-])c(N2CCCCCC2)n1, which solubility kinetic is on record?
Answer: 39.5 µg/mL (≈ 148 µM)

Question: Which solubility kinetic does the source give for Cl.O=C(O)CC1(CC(=O)N2CCN(CCO)CC2)CCCC1 here?
Answer: > 50.2 µg/mL

Question: For NS(=O)(=O)c1ccc(NC(=O)C(=O)NCCC(=O)O)cc1, which solubility kinetic is on record?
Answer: > 47.3 µg/mL

Question: With CCN(CC)c1ccc(/C=C2\C(=O)NC(=S)N(c3ccc(OC)cc3OC)C2=O)o1 as the compound, how does the solubility kinetic read?
Answer: 56 µg/mL (≈ 130 µM)

Question: For O=C(NCCc1csc(-c2cccc(F)c2)n1)c1ccco1, which solubility kinetic is on record?
Answer: > 47.5 µg/mL

Question: For Cc1noc(C)c1CSc1ccccc1C(=O)OC(C)C(N)=O (stereo not given), which solubility kinetic is on record?
Answer: 11.5 µg/mL (≈ 34.4 µM)

Question: For COC(=O)c1ccc(CNC(=O)c2coc3ccccc3c2=O)cc1, which solubility kinetic is on record?
Answer: 3.7 µg/mL (≈ 11 µM)

Question: With Cc1onc(-c2c(Cl)cccc2Cl)c1C(=O)N(C)Cc1ccccc1 as the compound, how does the solubility kinetic read?
Answer: 40.9 µg/mL (≈ 109 µM)

Question: Which solubility kinetic does the source give for O=C(O)Cc1sc(NC2CCCCC2)nc1-c1ccc(Cl)cc1 here?
Answer: > 52.6 µg/mL

Question: For O=C(Nc1ccc2c(c1)OCO2)C1CC1(Cl)Cl (stereo not given), which solubility kinetic is on record?
Answer: > 41.1 µg/mL

Question: For O=C(CCc1ccccc1)Nc1ccc(S(=O)(=O)NC2=NCCCCC2)cc1, which solubility kinetic is on record?
Answer: 56.6 µg/mL (≈ 142 µM)
